US8722703B2, “Fused amino pyridines for the treatment of brain tumors” (Curis, Inc., priority 2009, dated 2014)

Tested on: H1975 intracranial tumor
Test: Efficacy study in H1975 intracranial metastasis model
Assay type: in vivo, nude mice
Details: Compound-15 120 mg/kg orally once every two days, lapatinib 75 mg/kg orally twice a day, 4 wk

## CN(C)c1cc2c(cc1Sc1nc3c(N)nccc3n1CCNCC(C)(C)C)OCO2 [Compound 15, 2-(6-(dimethylamino)benzo[d][1,3]dioxol-5-ylthio)-1-(2-(neopentylamino)ethyl)-1H-imidazo[4,5-c]pyridin-4-amine]
  animal survival: significantly prolonged animal survival
